Data reported in PubChem BioAssay AID248 (DTP/NCI, 2004).
Values joined by “and” are separate entries in the source; they are usually repeats but may differ in a detail not shown here. Identical values can stand only once. Toxic doses and inconclusive results are not listed. Rule as the data show it: active = T/C of 150% or more; inactive = T/C below 125%.

System: L1210 leukemia ip in BDF1 mice, survival T/C
Test: NCI In Vivo Anticancer Drug Screen. Data for tumor model L1210 Leukemia (intraperitoneal) in B6D2F1 (BDF1) mice
Details: endpoint: mean survival time, higher = longer survival
How it was run: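 Value reflects the ratio of survival in compound-treated mice to survival in vehicle-treated controls, with both groups carrying the same transplanted tumor.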

[1] = dose: 100.0 mg/kg/injection, schedule: Q01DX001 (ip), vehicle: Klucel (hydroxypropylcellulose) (HPC)
[2] = dose: 100.0 mg/kg/injection, schedule: Q04DX003 (ip), vehicle: saline with Tween-80
[3] = dose: 100.0 mg/kg/injection, schedule: Q04DX003 (ip), vehicle: saline
[4] = dose: 200.0 mg/kg/injection, schedule: Q04DX003 (ip), vehicle: saline
[5] = dose: 100.0 mg/kg/injection, schedule: Q01DX009 (ip), vehicle: saline with Tween-80
[6] = dose: 200.0 mg/kg/injection, schedule: Q01DX009 (ip), vehicle: saline with Tween-80
[7] = dose: 200.0 mg/kg/injection, schedule: Q04DX003 (ip), vehicle: saline with Tween-80
[8] = dose: 400.0 mg/kg/injection, schedule: Q01DX009 (ip), vehicle: saline with Tween-80
[9] = dose: 400.0 mg/kg/injection, schedule: Q04DX003 (ip), vehicle: saline with Tween-80
[10] = dose: 100.0 mg/kg/injection, schedule: Q01DX009 (ip), vehicle: Klucel (hydroxypropylcellulose) (HPC)
[11] = dose: 100.0 mg/kg/injection, schedule: Q04DX003 (ip), vehicle: Klucel (hydroxypropylcellulose) (HPC)
[12] = dose: 200.0 mg/kg/injection, schedule: Q01DX009 (ip), vehicle: Klucel (hydroxypropylcellulose) (HPC)
[13] = dose: 200.0 mg/kg/injection, schedule: Q04DX003 (ip), vehicle: Klucel (hydroxypropylcellulose) (HPC)
[14] = dose: 400.0 mg/kg/injection, schedule: Q01DX009 (ip), vehicle: Klucel (hydroxypropylcellulose) (HPC)
[15] = dose: 400.0 mg/kg/injection, schedule: Q04DX003 (ip), vehicle: Klucel (hydroxypropylcellulose) (HPC)
[16] = dose: 50.0 mg/kg/injection, schedule: Q01DX009 (ip), vehicle: Klucel (hydroxypropylcellulose) (HPC)
[17] = dose: 400.0 mg/kg/injection, schedule: Q04DX003 (ip), vehicle: saline
[18] = dose: 100.0 mg/kg/injection, schedule: Q04DX002 (ip), vehicle: Klucel (hydroxypropylcellulose) (HPC)
[19] = dose: 200.0 mg/kg/injection, schedule: Q04DX002 (ip), vehicle: Klucel (hydroxypropylcellulose) (HPC)

Measured: T/C

CCCCCCCCC/C(C)=N\N=C(N)N
inactive: dose: 8.0 mg/kg/injection, schedule: Q01DX Z (oral), vehicle: methylcellulose (MC) 91 % of control | dose: 15.0 mg/kg/injection, schedule: Q01DX Z (ip), vehicle: methylcellulose (MC) 90 % of control | dose: 15.0 mg/kg/injection, schedule: Q01DX Z (oral), vehicle: methylcellulose (MC) 87 % of control | dose: 30.0 mg/kg/injection, schedule: Q01DX Z (oral), vehicle: methylcellulose (MC) 96 % of control | dose: 60.0 mg/kg/injection, schedule: Q01DX Z (oral), vehicle: methylcellulose (MC) 96 % of control | dose: 120.0 mg/kg/injection, schedule: Q01DX Z (oral), vehicle: methylcellulose (MC) 101 % of control

COC12C3C=CC4C(C=C3)C4C1C2Br (stereo unspecified)
inactive: [1] 98 % of control | dose: 200.0 mg/kg/injection, schedule: Q01DX001 (ip), vehicle: Klucel (hydroxypropylcellulose) (HPC) 103 % of control | dose: 400.0 mg/kg/injection, schedule: Q01DX001 (ip), vehicle: Klucel (hydroxypropylcellulose) (HPC) 106 % of control

N=C(N)c1ccc(C(=O)Oc2ccc([N+](=O)[O-])cc2)cc1
inactive: dose: 25.0 mg/kg/injection, schedule: Q01DX009 (ip), vehicle: saline with Tween-80 103 % of control | dose: 25.0 mg/kg/injection, schedule: Q04DX003 (ip), vehicle: saline with Tween-80 94 % of control | dose: 50.0 mg/kg/injection, schedule: Q01DX009 (ip), vehicle: saline with Tween-80 97 % of control | dose: 50.0 mg/kg/injection, schedule: Q04DX003 (ip), vehicle: saline with Tween-80 97 % of control | [2] 98 % of control and 92 % of control

O=C(O)C1CCSS1 (stereo unspecified)
inactive: dose: 50.0 mg/kg/injection, schedule: Q01DX009 (ip), vehicle: saline 89 % of control | dose: 100.0 mg/kg/injection, schedule: Q01DX009 (ip), vehicle: saline 92 % of control | [3] 101 % of control | [4] 104 % of control

Cc1ccc(O)c(C)n1
inactive: dose: 66.0 mg/kg/injection, schedule: Q01DX009 (ip), vehicle: saline 98 % of control | dose: 150.0 mg/kg/injection, schedule: Q01DX009 (ip), vehicle: saline 97 % of control | dose: 200.0 mg/kg/injection, schedule: Q01DX009 (ip), vehicle: saline 93 % of control | dose: 400.0 mg/kg/injection, schedule: Q01DX009 (ip), vehicle: saline 102 % of control

O=C(O)Cn1c(C(F)(F)F)nc2nc(Cl)c(Cl)nc21
inactive: [5] 89 % of control | [2] 94 % of control | [6] 100 % of control | [7] 94 % of control | [8] 92 % of control | [9] 97 % of control

NC(N)=NC1=NC(=O)CS1
inactive: [5] 105 % of control | [2] 108 % of control | [6] 103 % of control | [7] 96 % of control | [8] 103 % of control | [9] 92 % of control

Cc1cc(C)c(C)c(Br)c1C
inactive: [10] 92 % of control | [11] 104 % of control | [12] 92 % of control | [13] 112 % of control | [14] 86 % of control | [15] 101 % of control

Cc1c(Cl)cccc1N=Cc1ccccc1O
inactive: [16] 96 % of control | [10] 108 % of control | [11] 109 % of control | [12] 110 % of control | [13] 107 % of control | [15] 98 % of control

NNc1nc(Cl)nc(C(Cl)(Cl)Cl)c1Cl (tested in a mixture with another compound)
inactive: [16] 87 % of control | [10] 87 % of control | [12] 89 % of control

COC(=O)C(C)NC(=O)C1CSC(C)(C)N1C=O (stereo unspecified)
inactive: [3] 101 % of control | [4] 95 % of control | [17] 95 % of control

CCOC(=O)c1cnc(SC)nc1Nc1ccccc1I
inactive: [11] 101 % of control | [13] 97 % of control | [15] 103 % of control

CC(C#N)CN1CC1 (stereo unspecified)
inactive: dose: 20.0 mg/kg/injection, schedule: Q01DX001 (ip), vehicle: Klucel (hydroxypropylcellulose) (HPC) 101 % of control

CC1(C)C2CC3CC(C(=O)O)C(C(=O)O)CC3(C2)C1Br (stereo unspecified)
inactive: [11] 101 % of control | [13] 101 % of control | [15] 101 % of control

Nc1nc(N)nc(N)n1
inactive: dose: 50.0 mg/kg/injection, schedule: Q04DX002 (ip), vehicle: Klucel (hydroxypropylcellulose) (HPC) 94 % of control | [10] 92 % of control and 113 % of control | [18] 94 % of control | [12] 92 % of control and 99 % of control | [19] 94 % of control and 105 % of control | [14] 95 % of control and 99 % of control | dose: 400.0 mg/kg/injection, schedule: Q04DX002 (ip), vehicle: Klucel (hydroxypropylcellulose) (HPC) 102 % of control | dose: 800.0 mg/kg/injection, schedule: Q01DX009 (ip), vehicle: Klucel (hydroxypropylcellulose) (HPC) 96 % of control | dose: 1000.0 mg/kg/injection, schedule: Q01DX009 (ip), vehicle: Klucel (hydroxypropylcellulose) (HPC) 103 % of control

N#CC1C=Cc2ccccc2N1C(=O)Oc1ccccc1 (stereo unspecified)
inactive: [3] 104 % of control | [4] 93 % of control | [17] 94 % of control

c1cc(C[N+]23CN4CN(CN(C4)C2)C3)cs1
inactive: dose: 25.0 mg/kg/injection, schedule: Q04DX003 (ip), vehicle: saline 93 % of control | dose: 50.0 mg/kg/injection, schedule: Q04DX003 (ip), vehicle: saline 95 % of control

O=P(O)(CP(=O)(c1ccccc1)c1ccccc1)c1ccccc1
inactive: [18] 94 % of control | [19] 94 % of control

COC1OC(C)C(OS(C)(=O)=O)C2OC(C)(C)OC12 (stereo unspecified)
inactive: [16] 103 % of control | [10] 97 % of control | [11] 124 % of control | [12] 100 % of control | [13] 107 % of control | [14] 112 % of control | [15] 101 % of control

Nc1cc(Cl)cc2c1-c1c(Cl)cc(Cl)cc1C2=O
inactive: [10] 100 % of control | [11] 97 % of control | [12] 106 % of control | [13] 95 % of control

CC=NCc1ccccc1
inactive: dose: 50.0 mg/kg/injection, schedule: Q01DX009 (sc), vehicle: olive oil, sesame oil, peanut oil 98 % of control | dose: 100.0 mg/kg/injection, schedule: Q01DX009 (sc), vehicle: olive oil, sesame oil, peanut oil 114 % of control | dose: 100.0 mg/kg/injection, schedule: Q04DX003 (sc), vehicle: olive oil, sesame oil, peanut oil 105 % of control | dose: 200.0 mg/kg/injection, schedule: Q04DX003 (sc), vehicle: olive oil, sesame oil, peanut oil 98 % of control

CSC(C#N)S(C)(=O)=O (stereo unspecified)
inactive: dose: 25.0 mg/kg/injection, schedule: Q01DX001 (ip), vehicle: Klucel (hydroxypropylcellulose) (HPC) 109 % of control | dose: 50.0 mg/kg/injection, schedule: Q01DX001 (ip), vehicle: Klucel (hydroxypropylcellulose) (HPC) 100 % of control | [1] 103 % of control and 108 % of control

C1=CC2CC1CC2CNCCN1CC1 (stereo unspecified)
inactive: dose: 10.0 mg/kg/injection, schedule: Q04DX003 (ip), vehicle: saline 106 % of control | dose: 20.0 mg/kg/injection, schedule: Q04DX003 (ip), vehicle: saline 87 % of control

CCCCCCCCCC(=O)N(CCC)CCC
inactive: [2] 91 % of control | [7] 88 % of control

CC(=O)Nc1c(Cc2cc(O)c3ncccc3c2NC(C)=O)cc(O)c2ncccc12
inactive: dose: 75.0 mg/kg/injection, schedule: Q01DX001 (ip), vehicle: other 96 % of control | dose: 150.0 mg/kg/injection, schedule: Q01DX001 (ip), vehicle: other 100 % of control | dose: 300.0 mg/kg/injection, schedule: Q01DX001 (ip), vehicle: other 103 % of control

O=C1CCCN1C(=O)C1CC1
inactive: dose: 100.0 mg/kg/injection, schedule: Q01DX001 (ip), vehicle: saline sonified 96 % of control | [5] 91 % of control | dose: 200.0 mg/kg/injection, schedule: Q01DX001 (ip), vehicle: saline sonified 109 % of control | [6] 87 % of control | dose: 400.0 mg/kg/injection, schedule: Q01DX001 (ip), vehicle: saline sonified 106 % of control | [8] 92 % of control
